Measurements taken from patent US7928103B2, “Compounds which modulate the CB2 receptor” (Boehringer Ingelheim International GmbH, priority 2006, dated 2011).

Assays:
human CB2R [1] = target: T1, human CB2R (Homo sapiens, UniProt P34972); assay: Human CB2 receptor binding (3H-CP55940 competition, SPA); set-up: purchased Perkin Elmer Life and Analytical Sciences; host or cells: HEK293 EBNA cells, stably transfected; conditions: through the use of the above described assays (CB1/CB2 binding, CB2R and CB1R cAMP); assay not specified further
Protocol: A. Human CB1 and CB2 Receptor Binding:
CB2 membranes were purchased and made from HEK293 EBNA cells stably transfected with human CB2 receptor cDNA (Perkin Elmer Life and Analytical Sciences). CB1 membranes were isolated from HEK cells stably co-transfected with human CB1 receptor and Gα16 cDNA's. The membrane preparation was bound to scintillation beads (Ysi-Poly-L-lysine SPA beads, GE Healthcare) for 4 hours at room temperature in assay buffer containing 50 mM Tris, pH 7.5, 2.5 mM EDTA, 5 mM MgCl2, 0.8% fatty acid free Bovine Serum Albumin. Unbound membrane was removed by washing in assay buffer. Membrane-bead mixture was added to 96-well assay plates in the amounts of 15 ug membrane per well (CB2) or 2.5 ug per well (CB1) and 1 mg SPA bead per well. Compounds were added to the membrane-bead mixture in dose-response concentrations ranging from 1×10^−5 M to 1×10^−10 M with 0.25% DMSO, final. The competition reaction was initiated with the addition of ^3H-CP55940 (Perkin Elmer Life and Analytical Sciences) at a final concentration of 1.5 nM (CB2) or 2.5 nM (CB1). The reaction was incubated at room temperature for 18 hours and read on TopCount NXT plate reader. Total and non-specific binding was determined in the absence and presence of 1.25 uM Win 55212 (Sigma). IC50 values for each compound were calculated as the concentration of compound that inhibits the specific binding of the radioactively labeled ligand to the receptor by 50% using the XLFit 4.1 four parameter logistic model. IC50 values were converted to inhibition constant (Ki) values using Cheng-Prusoff equation.

human CB2R [2] = target: T1, human CB2R; assay: CB2R mediated modulation of cAMP synthesis; type: cell-based; set-up: host or cells: CHO cells; conditions: agonists decrease forskolin induced production of cAMP; CHO cells expressing human CB2R
Protocol: B. CB2R Mediated Modulation of cAMP Synthesis:
Compounds of the invention were evaluated for their CB2 agonist or inverse agonistic activity in accordance with the following experimental method.
CHO cells expressing human CB2R (Euroscreen) were plated at a density of 5000 cells per well in 384 well plates and incubated overnight at 37° C. After removing the media, the cells were treated with test compounds diluted in stimulation buffer containing 1 mM IBMX, 0.25% BSA and 10 uM Forskolin. The assay was incubated for 30 minutes at 37° C. Cells were lysed and the cAMP concentration was measured using DiscoverX-XS cAMP kit, following the manufacturer's protocol. In this setting, agonists will decrease forskolin induced production of cAMP while inverse agonists will further increase forskolin induced production of cAMP. EC50 of agonists were calculated as follows. The maximal amount of cAMP produced by forskolin compared to the level of cAMP inhibited by 1 uM CP55940 is defined as 100%. The EC50 value of each test compound was determined as the concentration at which 50% of the forskolin-stimulated cAMP synthesis was inhibited. Data was analyzed using a four-parameter logistic model. (Model 205 of XLfit 4.0).

T1 sequence (P34972 whole entry): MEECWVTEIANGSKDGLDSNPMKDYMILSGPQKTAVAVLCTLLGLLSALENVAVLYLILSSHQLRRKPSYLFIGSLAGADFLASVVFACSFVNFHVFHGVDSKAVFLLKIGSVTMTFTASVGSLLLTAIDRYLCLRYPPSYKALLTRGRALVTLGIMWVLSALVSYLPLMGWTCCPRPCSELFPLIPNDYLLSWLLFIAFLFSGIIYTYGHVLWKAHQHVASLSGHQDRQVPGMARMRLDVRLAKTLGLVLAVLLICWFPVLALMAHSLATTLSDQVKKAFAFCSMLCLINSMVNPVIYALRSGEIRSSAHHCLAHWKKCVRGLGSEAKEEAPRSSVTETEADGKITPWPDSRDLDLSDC

found to exhibit activity (human CB2R [1]) | found to exhibit agonistic activity (human CB2R [2]) | SMILES
exhibit activity | exhibit agonistic activity | c1ccc([C@H]2CN(Cc3ccc(Nc4ccncn4)nc3)CCO2)cc1 [Example 8, [5-((S)-2-Phenyl-morpholin-4-ylmethyl)-pyridin-2-yl]-pyrimidin-4-yl-amine]
exhibit activity | exhibit agonistic activity | c1ccc(Nc2ccc(CN3CCO[C@@H](c4ccccc4)C3)cn2)cc1 [Example 15, Phenyl-[5-((S)-2-phenyl-morpholin-4-ylmethyl)-pyridin-2-yl]-amine]
exhibit activity | exhibit agonistic activity | Clc1ccccc1Nc1ccc(CN2CCO[C@@H](c3ccccc3)C2)cn1 [Example 17, (2-Chloro-phenyl)-[5-((S)-2-phenyl-morpholin-4-ylmethyl)-pyridin-2-yl]-amine]
exhibit activity | exhibit agonistic activity | Clc1ccc(Nc2ccc(CN3CCO[C@@H](c4ccccc4)C3)cn2)cc1 [Example 30, (4-Chloro-phenyl)-[5-((S)-2-phenyl-morpholin-4-ylmethyl)-pyridin-2-yl]-amine]
exhibit activity | exhibit agonistic activity | CCOc1ccccc1Nc1ccc(CN2CCO[C@@H](c3ccccc3)C2)cn1 [Example 22, (2-Ethoxy-phenyl)-[5-((S)-2-phenyl-morpholin-4-ylmethyl)-pyridin-2-yl]-amine]
exhibit activity | exhibit agonistic activity | Clc1ccc(Cl)c(Nc2ccc(CN3CCO[C@@H](c4ccccc4)C3)cn2)c1 [Example 20, (2,5-Dichloro-phenyl)-[5-((S)-2-phenyl-morpholin-4-ylmethyl)-pyridin-2-yl]-amine]
exhibit activity | exhibit agonistic activity | Fc1cccc(Nc2ccc(CN3CCO[C@@H](c4ccccc4)C3)cn2)c1 [Example 25, (3-Fluoro-phenyl)-[5-((S)-2-phenyl-morpholin-4-ylmethyl)-pyridin-2-yl]-amine]
exhibit activity | exhibit agonistic activity | c1ccc([C@H]2CN(Cc3ccc(Nc4cccc5cnccc45)nc3)CCO2)cc1 [Example 14, Isoquinolin-5-yl-[5-((S)-2-phenyl-morpholin-4-ylmethyl)-pyridin-2-yl]-amine]
exhibit activity | exhibit agonistic activity | c1ccc([C@H]2CN(Cc3ccc(Nc4cc5ccccc5cn4)nc3)CCO2)cc1 [Example 33, Isoquinolin-3-yl-[5-((S)-2-phenyl-morpholin-4-ylmethyl)-pyridin-2-yl]-amine]
